Consider seven compounds from paper PMC7727669, “Platinum(II) Complexes with Bulky Disubstitute Triazolopyrimidines as Promising Materials for Anticancer Agents” (Materials, 2020).

The conditions of data set [1]: cited from earlier work.
Data set [2] deals with human ovarian carcinoma cell lines resistant to cisplatin (A2780R). Further details: method as in PMID 19783310. Particulars: read-out: in vitro activity against A2780R; cited from earlier work.
Data set [3] has as its system non-small cell lung carcinoma (A549). Put plainly: In vitro antiproliferative activity, SRB test, A549. Type of data set: cell-based, human. Particulars: A549, 72 h incubation, average of three determinations. The procedure: (§1) The in vitro antiproliferative activity against three human tumor cell lines, namely, non-small cell lung carcinoma (A549) (ATCC, Rockville, MD, USA), […] human ductal breast epithelial tumor cells (T47D) (ATCC, Rockville, MD, USA) and colon cancer cells (LOVO) (ATCC, Rockville, MD, USA), and normal murine embryonic fibroblast cells (BALB/3T3) (ATCC, Rockville, MD, USA), was assessed.
(§2) Cells were plated in 96-well sterile plates (Sarstedt, Costar) at a density of 10^4 cells per well (in 100 μL of culture medium) and incubated for 24 h. The tested compound was added in final concentrations ranging from 0.1 to 100 μg mL^−1, and the incubation was continued for an additional 72 h. The results of in vitro cytotoxic activity are expressed as an IC50 (the dose of compound (in μM) that inhibits proliferation rate of tumor cells by 50%) value compared to the untreated control cells. IC50 values are expressed as the averages of three independently reproduced experiments. The details of this technique were described by Skehan. The tests of the antiproliferative activity in vitro against both cell lines were performed with the SRB (sulforhodamine B) test using an automated microplate reader (Synergy H4 photometer, BioTek Instruments Inc., Winooski, VT, USA). Moreover, in vitro toxicity against normal murine fibroblast Balb3T3 cells was assessed.
A general note: The SRB assay estimates cell density from bound dye.

The subject of data set [4] is normal murine embryonic fibroblast cells (BALB/3T3). Put plainly: In vitro toxicity against normal fibroblasts, SRB test, BALB/3T3. Type of data set: cell-based. Particulars: BALB/3T3 normal cells, 72 h incubation, average of three determinations. The procedure:
as §2, with “The results of in vitro cytotoxic activity are expressed as an IC50 (the dose of compound (in μM) that inhibits proliferation rate of tumor cells by 50%) value compared to the untreated control cells.” left out

The test system of data set [5] is colon cancer cells (LOVO). Nature of the data set: In vitro antiproliferative activity, SRB test, LoVo. To be noted: 72 h incubation, average of three determinations. Type of data set: cell-based, human. The procedure:
as §1, §2

The subject of data set [6] is cisplatin-resistant human ductal breast epithelial tumor cells (T47D). Put plainly: In vitro antiproliferative activity, SRB test, T47D. It counts as cell-based. Particulars: 72 h incubation, average of three determinations. On the procedure: as §1, §2
A short description of data set [7]: Partition coefficient (logP), shake-flask method. Type of data set: physicochemical. To be noted: n-octanol / aqueous 0.9% NaCl, UV-Vis. The procedure: The lipophilicity (logP) of the platinum(II) compounds was determined using the shake–flask method. At first, aqueous (0.9% w/v) sodium chloride and organic (n–octanol) phases were saturated for 1 week. […] An equal volume of immiscible solvent was added, and the solutions were mixed mechanically in plastic tubes for 30 min. Samples were centrifuged (6000 rpm, 15 min). After separation, the phases were analyzed by UV–Vis spectroscopy to determine the amount of the compound in each phase. The absorption values before and after shaking were compared, and based on the Lambert–Beer law, the partition coefficient in both phases for each compound was calculated to determine the logP values. The procedures were repeated threefold.

Where two headings read alike, the source gives them in different places.

`CC(C)(C)c1cc(C(C)(C)C)n2ncnc2n1.CC(C)(C)c1cc(C(C)(C)C)n2ncnc2n1.O=C([O-])CC(=O)[O-].[Pt+2]` [[Pt(mal)(dbtp)2]]: the log partition coefficient (logP) (in general, a log measure of how a compound divides between an organic and an aqueous phase) in data set [1] (symmetrical malonato complexes, previous work) is given as 2.07.
For `N.N.O=C([O-])C1(C(=O)[O-])CCC1.[Pt+2]` [carboplatin], the log P (as a rule, the decadic logarithm of the partition coefficient of the neutral form, usually between octanol and water) in data set [1] (literature data for platinum(II) drugs) was −2.30.
On to `N.N.[Cl][Pt][Cl]` [cisplatin, reference compound], for which the IC50 in data set [2] was 20.4 µM; in data set [3] it was 9 ± 1.1 µM; in data set [4], 3.2 ± 1.5 µM; in data set [5], 0.84 ± 0.3 µM; in data set [6], 3.11 ± 1.2 µM.
Regarding “(Dimethylsulfoxide-κS)(5,7-ditertbutyl-1,2,4-triazolo[1,5-a]pyrimidine-κN(3))(cyclobutane-1,1- dicarboxylato-κ^2O,O′))platinum(II) monoaqua hydrate [Complex 3]”, the IC50 worked out at 5 ± 0.9 µM in data set [3], 10.2 ± 6.2 µM in data set [4], 20 ± 2.8 µM in data set [5] and 6.6 ± 4.8 µM in data set [6]. Besides, the “log P” value in data set [7] is −1.69.
The corresponding values for “(Dimethylsulfoxide-κS)(5,7-ditertbutyl-1,2,4-triazolo[1,5-a]pyrimidine-κN(3))(malonato-κ^2O,O′) platinum(II) [Complex 1]” are 16.3 ± 9.9 µM, 30.2 ± 22.6 µM, 27.9 ± 1 µM, 17.1 ± 10.5 µM and −1.58.
The corresponding values for “(Dimethylsulfoxide-κS)(7-isobutyl-5-methyl-1,2,4-triazolo[1,5-a]pyrimidine-κN(3))(cyclo- butane-1,1-dicarboxylato-κ^2O,O′))platinum(II) monoaqua hydrate [Complex 4]” are 57.3 ± 11.3 µM, 73.4 ± 29.7 µM, 41.2 ± 1.6 µM, 21.9 ± 17.2 µM and −1.23.
The corresponding values for “(Dimethylsulfoxide-κS)(7-isobutyl-5-methyl-1,2,4-triazolo[1,5-a]pyrimidine-κN(3))(malonato- κ^2O,O′)platinum(II) monoaqua hydrate [Complex 2]” are 57.8 ± 13.5 µM, 46 ± 40.7 µM, 38.4 ± 1.8 µM, 42.6 ± 19 µM and −0.65.
